In the NIST ThermoML archive (doi:10.1007/s10765-016-2089-2):

Assays:
[1] = wn = mass fraction of the nth substance listed; conditions: 100 kPa, Liquid; for electrical conductivity: Alternating current cell with electrodes; for viscosity: Capillary tube (Ostwald / Ubbelohde) method; for mass density: Vibrating tube method
[2] = refractive index (Na D-line) (dimensionless); wn = mass fraction of the nth substance listed; conditions: 100 kPa, Liquid, Standard Abbe refractometry

O=S(=O)([O-])[O-].[Cu+2] [copper sulfate] + O
Conditions	electrical conductivity, [1] [S/m]	mass density, [1] [kg/m3]	refractive index, [2]	viscosity, [1] [mPa·s]
288.15 K, w1 = 0.0101	0.492	1009.6	1.3353	1.188
288.15 K, w1 = 0.0202	0.851	1019.98	1.3372	1.263
288.15 K, w1 = 0.0305	1.17	1030.49	1.3391	1.344
288.15 K, w1 = 0.0409	1.47	1041.68	1.3411	1.371
288.15 K, w1 = 0.0514	1.76	1052.54	1.3429	1.404
288.15 K, w1 = 0.0621	2.03	1063.7	1.3449	1.472
288.15 K, w1 = 0.0729	2.29	1074.95	1.3469	1.591
288.15 K, w1 = 0.0838	2.54	1086.38	1.3488	1.649
288.15 K, w1 = 0.0948	2.77	1098.22	1.3508	1.744
293.15 K, w1 = 0.0101	0.548	1008.63	1.3348	1.083
293.15 K, w1 = 0.0202	0.943	1019.09	1.3367	1.132
293.15 K, w1 = 0.0305	1.31	1029.38	1.3384	1.191
293.15 K, w1 = 0.0409	1.63	1040.53	1.3405	1.199
293.15 K, w1 = 0.0514	1.96	1051.49	1.3424	1.273
293.15 K, w1 = 0.0621	2.26	1062.26	1.3444	1.31
293.15 K, w1 = 0.0729	2.55	1073.67	1.3463	1.393
293.15 K, w1 = 0.0838	2.82	1084.84	1.3483	1.452
293.15 K, w1 = 0.0948	3.09	1096.44	1.3504	1.528
298.15 K, w1 = 0.0101	0.61	1007.43	1.3343	0.937
298.15 K, w1 = 0.0202	1.05	1017.84	1.3362	1.001
298.15 K, w1 = 0.0305	1.45	1028.06	1.3379	1.018
298.15 K, w1 = 0.0409	1.83	1039	1.34	1.068
298.15 K, w1 = 0.0514	2.18	1049.67	1.3418	1.123
298.15 K, w1 = 0.0621	2.52	1060.66	1.3437	1.142
298.15 K, w1 = 0.0729	2.84	1071.85	1.3456	1.227
298.15 K, w1 = 0.0838	3.16	1083.16	1.3476	1.288
298.15 K, w1 = 0.0948	3.44	1094.5	1.3495	1.36
303.15 K, w1 = 0.0101	0.664	1005.98	1.3338	0.835
303.15 K, w1 = 0.0202	1.14	1016.35	1.3356	0.892
303.15 K, w1 = 0.0305	1.59	1026.77	1.3373	0.918
303.15 K, w1 = 0.0409	2	1037.41	1.3392	0.952
303.15 K, w1 = 0.0514	2.38	1048.04	1.3411	1.014
303.15 K, w1 = 0.0621	2.75	1058.96	1.343	1.029
303.15 K, w1 = 0.0729	3.1	1070.1	1.3449	1.098
303.15 K, w1 = 0.0838	3.44	1081.38	1.3468	1.122
303.15 K, w1 = 0.0948	3.76	1092.64	1.3488	1.203
308.15 K, w1 = 0.0101	0.719	1004.32	1.3331	0.758
308.15 K, w1 = 0.0202	1.24	1014.65	1.3349	0.8
308.15 K, w1 = 0.0305	1.72	1024.97	1.3367	0.835
308.15 K, w1 = 0.0409	2.16	1035.64	1.3387	0.857
308.15 K, w1 = 0.0514	2.57	1046.35	1.3405	0.883
308.15 K, w1 = 0.0621	2.97	1057.16	1.3426	0.948
308.15 K, w1 = 0.0729	3.36	1068.13	1.3445	0.99
308.15 K, w1 = 0.0838	3.74	1078.76	1.3463	1.022
308.15 K, w1 = 0.0948	4.09	1091.27	1.3481	1.089
